Source: PubChem BioAssay AID270 (DTP/NCI, 2004)
Several values for one entry are separate records, joined by “and”; a condition that tells them apart may be missing. Identical values can stand only once. Results filed as inconclusive are left out.

Tested on: BDF1 mice, s.c. Lewis lung carcinoma, T/C %
Experiment: NCI In Vivo Anticancer Drug Screen. Data for tumor model Lewis Lung Carcinoma (subcutaneous) in B6D2F1 (BDF1) mice
How it was run: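 The value reflects a ratio in which the treated cohort's survival time or tumour size is compared against mice receiving only vehicle.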

CCC1/C=C/C=C/CC(C)C(O)C(C)(O)C(=O)C(C)C(O)C(C)C(=O)C(C)C(O)C(C)/C=C/C(=O)OC2C(C)C(CC1)OC1(OC(CC(C)O)C(C)CC1=O)C2C (stereo unspecified) (tested in a mixture with another compound)
T/C (endpoint: mean tumor weight, dose: 2.0 mg/kg/injection, schedule: Q01DX011 (ip), vehicle: saline, higher = larger tumour): 106 % of control | T/C (endpoint: mean tumor weight, dose: 4.0 mg/kg/injection, schedule: Q01DX011 (ip), vehicle: saline, higher = larger tumour): 94 % of control | T/C (endpoint: mean tumor weight, dose: 8.0 mg/kg/injection, schedule: Q01DX011 (ip), vehicle: saline, higher = larger tumour): 82 % of control

CS(=O)(=O)OCC(O)C(O)COS(C)(=O)=O (stereo unspecified)
T/C (endpoint: mean tumor weight, dose: 125.0 mg/kg/injection, schedule: Q01DX011 (ip), vehicle: saline, higher = larger tumour): 87 % of control | T/C (endpoint: mean tumor weight, dose: 250.0 mg/kg/injection, schedule: Q01DX011 (ip), vehicle: saline, higher = larger tumour): 77 % of control | T/C (endpoint: mean tumor weight, dose: 500.0 mg/kg/injection, schedule: Q01DX011 (ip), vehicle: other, higher = larger tumour): 75 % of control | T/C (endpoint: mean tumor weight, dose: 500.0 mg/kg/injection, schedule: Q01DX011 (ip), vehicle: saline, higher = larger tumour): 59 % of control | T/C (endpoint: mean tumor weight, dose: 750.0 mg/kg/injection, schedule: Q01DX011 (ip), vehicle: other, higher = larger tumour): 93 % of control | T/C (endpoint: mean tumor weight, dose: 1000.0 mg/kg/injection, schedule: Q01DX011 (ip), vehicle: other, higher = larger tumour): 55 % of control

CCN(CC)C(=S)S.[Te]
T/C (endpoint: mean tumor weight, dose: 50.0 mg/kg/injection, schedule: Q01DX011 (ip), vehicle: carboxymethylcellulose (CMC), higher = larger tumour): 24 % of control and 36 % of control | T/C (endpoint: mean tumor weight, dose: 200.0 mg/kg/injection, schedule: Q01DX011 (ip), vehicle: carboxymethylcellulose (CMC), higher = larger tumour): 10 % of control

Cc1cc(CCl)c(C)c(Br)c1C
T/C (endpoint: median survival time, dose: 1.5 mg/kg/injection, schedule: Q01DX009 (ip), vehicle: Klucel (hydroxypropylcellulose) (HPC), higher = longer survival): 108 % of control | T/C (endpoint: median survival time, dose: 3.0 mg/kg/injection, schedule: Q01DX009 (ip), vehicle: Klucel (hydroxypropylcellulose) (HPC), higher = longer survival): 120 % of control | T/C (endpoint: median survival time, dose: 6.0 mg/kg/injection, schedule: Q01DX009 (ip), vehicle: Klucel (hydroxypropylcellulose) (HPC), higher = longer survival): 95 % of control

CCCCn1ccnc1C
T/C (endpoint: median survival time, dose: 1.56 mg/kg/injection, schedule: Q01DX009 (ip), vehicle: saline, higher = longer survival): 112 % of control | T/C (endpoint: median survival time, dose: 3.13 mg/kg/injection, schedule: Q01DX009 (ip), vehicle: saline, higher = longer survival): 99 % of control | T/C (endpoint: median survival time, dose: 12.5 mg/kg/injection, schedule: Q01DX009 (ip), vehicle: saline, higher = longer survival): 99 % of control | T/C (endpoint: median survival time, dose: 25.0 mg/kg/injection, schedule: Q01DX009 (ip), vehicle: saline, higher = longer survival): 119 % of control | T/C (endpoint: median survival time, dose: 50.0 mg/kg/injection, schedule: Q01DX009 (ip), vehicle: saline, higher = longer survival): 98 % of control

CCN1C=C/C(=C\C=C/c2cc[n+](CC)c3ccccc23)c2ccccc21
T/C (endpoint: median survival time, dose: 6.0 micrograms/kg/injection, schedule: Q01DX009 (ip), vehicle: saline, higher = longer survival): 114 % of control | T/C (endpoint: median survival time, dose: 6.2 micrograms/kg/injection, schedule: Q01DX009 (ip), vehicle: saline with Tween-80, higher = longer survival): 104 % of control | T/C (endpoint: median survival time, dose: 12.0 micrograms/kg/injection, schedule: Q01DX009 (ip), vehicle: saline, higher = longer survival): 209 % of control | T/C (endpoint: median survival time, dose: 12.5 micrograms/kg/injection, schedule: Q01DX009 (ip), vehicle: saline with Tween-80, higher = longer survival): 98 % of control | T/C (endpoint: median survival time, dose: 25.0 micrograms/kg/injection, schedule: Q01DX009 (ip), vehicle: saline with Tween-80, higher = longer survival): 101 % of control | T/C (endpoint: median survival time, dose: 25.0 micrograms/kg/injection, schedule: Q01DX009 (ip), vehicle: saline, higher = longer survival): 208 % of control | T/C (endpoint: median survival time, dose: 50.0 micrograms/kg/injection, schedule: Q01DX009 (ip), vehicle: saline with Tween-80, higher = longer survival): 98 % of control | T/C (endpoint: median survival time, dose: 50.0 micrograms/kg/injection, schedule: Q01DX009 (ip), vehicle: saline, higher = longer survival): 209 % of control | T/C (endpoint: median survival time, dose: 100.0 micrograms/kg/injection, schedule: Q01DX009 (ip), vehicle: saline with Tween-80, higher = longer survival): 104 % of control

CCC1NC(=O)C(NC(=O)c2ncccc2O)C(C)OC(=O)C(c2ccccc2)NC(=O)C2CC(=O)CCN2C(=O)C(Cc2ccccc2)N(C)C(=O)C2CCCN2C1=O (stereo unspecified) (tested in a mixture with another compound)
T/C (endpoint: median survival time, dose: 9.4 mg/kg/injection, schedule: Q01DX009 (ip), vehicle: Klucel (hydroxypropylcellulose) (HPC), higher = longer survival): 102 % of control | T/C (endpoint: median survival time, dose: 18.75 mg/kg/injection, schedule: Q01DX009 (ip), vehicle: Klucel (hydroxypropylcellulose) (HPC), higher = longer survival): 87 % of control | T/C (endpoint: median survival time, dose: 37.5 mg/kg/injection, schedule: Q01DX009 (ip), vehicle: Klucel (hydroxypropylcellulose) (HPC), higher = longer survival): 94 % of control

CO[C@H](C(=O)[C@@H](O)[C@@H](C)O)[C@@H]1Cc2cc3cc(OC4CC(OC5CC(O)C(O)C(C)O5)C(O)C(C)O4)c(C)c(O)c3c(O)c2C(=O)[C@H]1OC1CC(OC2CC(OC3CC(C)(O)C(O)C(C)O3)C(O)C(C)O2)C(O)C(C)O1 (stereo partly specified)
T/C (endpoint: median survival time, dose: 0.25 mg/kg/injection, schedule: Q01DX009 (ip), vehicle: saline, higher = longer survival): 116 % of control

CSc1ncnc2c1ncn2C1CCCO1 (stereo unspecified)
T/C (endpoint: mean tumor weight, dose: 10.0 mg/kg/injection, schedule: Q01DX011 (ip), vehicle: other, higher = larger tumour): 103 % of control | T/C (endpoint: mean tumor weight, dose: 20.0 mg/kg/injection, schedule: Q01DX011 (ip), vehicle: other, higher = larger tumour): 53 % of control | T/C (endpoint: mean tumor weight, dose: 40.0 mg/kg/injection, schedule: Q01DX011 (ip), vehicle: other, higher = larger tumour): 68 % of control | T/C (endpoint: mean tumor weight, dose: 80.0 mg/kg/injection, schedule: Q01DX011 (ip), vehicle: other, higher = larger tumour): 86 % of control
